In ChEMBL document CHEMBL1697781, “Assessment of the health effects of chemicals in humans: II. Construction of an adverse effects database for QSAR modeling” (Curr Drug Discov Technol, 2004):

Tests used:
Settings in all cases: human; call rule not given here
Hepatotoxicity [1] = test: FDA HLAED, liver enzyme composite activity
Hepatotoxicity [2] = test: FDA HLAED, alkaline phosphatase increase
Hepatotoxicity [3] = test: FDA HLAED, serum glutamic oxaloacetic transaminase (SGOT) increase
Hepatotoxicity [4] = test: FDA HLAED, serum glutamic pyruvic transaminase (SGPT) increase
Hepatotoxicity [5] = test: FDA HLAED, gamma-glutamyl transferase (GGT) increase
Wherever GGT Increase - Index Value is given: reference of the scale not given here.

| Compound | Composite Activity - Active (Hepatotoxicity [1]) | Composite Activity - Marginal (Hepatotoxicity [1]) | Composite Activity - Score (Hepatotoxicity [1]) | Alkaline Phosphatase Increase - Activity Score (Hepatotoxicity [2]) | Alkaline Phosphatase Increase - Index Value (Hepatotoxicity [2]) | Alkaline Phosphatase Increase - Number of Reports (Hepatotoxicity [2]) | SGOT Increase - Activity Score (Hepatotoxicity [3]) | SGOT Increase - Index Value (Hepatotoxicity [3]) | SGOT Increase - Number of Reports (Hepatotoxicity [3]) | SGPT Increase - Activity Score (Hepatotoxicity [4]) | SGPT Increase - Index Value (Hepatotoxicity [4]) | SGPT Increase - Number of Reports (Hepatotoxicity [4]) | GGT Increase - Activity Score (Hepatotoxicity [5]) | GGT Increase - Index Value (Hepatotoxicity [5]) | GGT Increase - Number of Reports (Hepatotoxicity [5]) | Composite Activity - Active (Hepatotoxicity [1]; Liver) | Composite Activity - Marginal (Hepatotoxicity [1]; Liver) | Composite Activity - Score (Hepatotoxicity [1]; Liver) |
| --- | --- | --- | --- | --- | --- | --- | --- | --- | --- | --- | --- | --- | --- | --- | --- | --- | --- | --- |
| Oc1ncnc2[nH]ncc12 [ALLOPURINOL] | 4 | 0 | Active | Active | 4.7 | >= 4 | Active | 15 | >= 4 | Active | 9.4 | >= 4 | Active | 9.4 | >= 4 |  |  |  |
| NC(=O)N1c2ccccc2C=Cc2ccccc21 [CARBAMAZEPINE] | 1 | 1 |  | Marginally Active | 3.3 | >= 4 |  |  |  |  |  |  | Active | 4.4 | >= 4 |  |  |  |
| Clc1cccc(Cl)c1N=C1NCCN1 [CLONIDINE] |  |  |  | Active | 11.5 | >= 4 |  |  |  | Active | 7.6 | >= 4 | Active | 9.5 | >= 4 | 2 | 0 | Active |
| CN(C)CCC=C1c2ccccc2COc2ccccc21 [DOXEPIN] | 2 | 0 | Active | Active | 434.8 | < 4 |  |  |  |  |  |  | Active | 434.8 | < 4 |  |  |  |
| CCN(CC)CCOc1ccc(/C(=C(/Cl)c2ccccc2)c2ccccc2)cc1 [ENCLOMIPHENE] | 3 | 0 | Active |  |  |  | Active | 18.8 | >= 4 | Active | 25 | >= 4 | Active | 15.6 | >= 4 |  |  |  |
| CCCCCCCCCCCCCCCCCC(=O)O.CC[C@H]1OC(=O)[C@H](C)[C@@H](O[C@H]2C[C@@](C)(OC)[C@@H](O)[C@H](C)O2)[C@H](C)[C@@H](O[C@@H]2O[C@H](C)C[C@H](N(C)C)[C@H]2OC(C)=O)[C@](C)(O)C[C@@H](C)C(=O)[C@H](C)[C@@H](O)[C@]1(C)O [ERYTHROMYCIN ACISTRATE] | 3 | 0 | Active | Active | 7.3 | >= 4 | Active | 7.9 | >= 4 | Active | 8.5 | >= 4 |  |  |  |  |  |  |
| CCOC(=O)CCC(=O)O[C@H]1[C@H](O[C@@H]2[C@@H](C)[C@H](O[C@H]3C[C@@](C)(OC)[C@@H](O)[C@H](C)O3)[C@@H](C)C(=O)O[C@H](CC)[C@@](C)(O)[C@H](O)[C@@H](C)C(=O)[C@H](C)C[C@@]2(C)O)O[C@H](C)C[C@@H]1N(C)C [ERYTHROMYCIN ETHYLSUCCINATE] | 3 | 0 | Active | Active | 7.3 | >= 4 | Active | 7.9 | >= 4 | Active | 8.5 | >= 4 |  |  |  |  |  |  |
| CCC(=O)O[C@H]1[C@H](O[C@@H]2[C@@H](C)[C@H](O[C@H]3C[C@@](C)(OC)[C@@H](O)[C@H](C)O3)[C@@H](C)C(=O)O[C@H](CC)[C@@](C)(O)[C@H](O)[C@@H](C)C(=O)[C@H](C)C[C@@]2(C)O)O[C@H](C)C[C@@H]1N(C)C [ERYTHROMYCIN PROPIONATE] | 3 | 0 | Active | Active | 7.3 | >= 4 | Active | 7.9 | >= 4 | Active | 8.5 | >= 4 |  |  |  |  |  |  |
| CC[C@H]1OC(=O)[C@H](C)[C@@H](O[C@H]2C[C@@](C)(OC)[C@@H](O)[C@H](C)O2)[C@H](C)[C@@H](O[C@@H]2O[C@H](C)C[C@H](N(C)C)[C@H]2O)[C@](C)(O)C[C@@H](C)C(=O)[C@H](C)[C@@H](O)[C@]1(C)O [ERYTHROMYCIN] | 3 | 0 | Active | Active | 7.3 | >= 4 | Active | 7.9 | >= 4 | Active | 8.5 | >= 4 |  |  |  |  |  |  |
| CC(C)Cc1ccc(C(C)C(=O)O)cc1 (stereo not drawn) [IBUPROFEN] | 0 | 3 |  | Marginally Active | No Shipping Units | >= 4 | Marginally Active | No Shipping Units | >= 4 | Marginally Active | No Shipping Units | >= 4 |  |  |  |  |  |  |
| NNCCc1ccccc1 [PHENELZINE] |  |  |  |  |  |  | Active | 4.9 | >= 4 | Active | 4.9 | >= 4 | Active | 4.9 | >= 4 | 3 | 0 | Active |
| CC(=O)CC(c1ccccc1)c1c(O)c2ccccc2oc1=O (stereo not drawn) [WARFARIN] | 0 | 3 |  | Marginally Active | No Shipping Units | >= 4 | Marginally Active | No Shipping Units | >= 4 | Marginally Active | No Shipping Units | >= 4 |  |  |  |  |  |  |
